The numbers were not newly measured in US20110159092A1 (MICRO LABS LIMITED, priority 2009, published 2011), which cites them from elsewhere.

Data set [1] has as its system bacteria. The conditions noted are these: background statement.
Data set [2] concerns enterococci. The conditions noted are these: against enterococci.
The subject of data set [3] is staphylococci. The conditions noted are these: against staphylococci.
The test system of data set [4] is streptococci. The conditions noted are these: majority of strains.

As to `CC(=O)NC[C@H]1CN(c2ccc(N3CCOCC3)c(F)c2)C(=O)O1` [Linezolid, (S)-N-({3-[3-fluoro-4-(morpholin-4-yl)phenyl]-2-oxo-1,3-oxazolidin-5-yl}methyl)acetamide], in data set [1], the MIC is 1 to 4 µg/mL. Also, the time-kill result is reported as “bacteriostatic” in data set [2], “bacteriostatic” in data set [3] and “bactericidal” in data set [4].
